Measured values from PubChem BioAssay AID330 (DTP/NCI, 2004).
Values joined by “and” are separate entries in the source; they are usually repeats but may differ in a detail not shown here. Identical values can stand only once. Inconclusive results and toxic doses are left out. The calls were made as follows: active = survival T/C of 150% or more; inactive = T/C below 125% in these data.

Tested on: P388 leukemia ip, CD2F1 mice, survival T/C
Assay: NCI In Vivo Anticancer Drug Screen. Data for tumor model P388 Leukemia (intraperitoneal) in CD2F1 (CDF1) mice
Conditions: endpoint: median survival time, higher = longer survival
In short: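 Mice carrying the transplanted tumor received test compound or vehicle. Survival was recorded in each group, and the value is the treated-group measurement divided by that of the vehicle-treated control group.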

[1] = dose: 50.0 mg/kg/injection, schedule: Q01DX009 (ip), vehicle: Klucel (hydroxypropylcellulose) (HPC)
[2] = dose: 100.0 mg/kg/injection, schedule: Q01DX009 (ip), vehicle: Klucel (hydroxypropylcellulose) (HPC)
[3] = dose: 200.0 mg/kg/injection, schedule: Q01DX009 (ip), vehicle: Klucel (hydroxypropylcellulose) (HPC)
[4] = dose: 60.0 mg/kg/injection, schedule: Q01DX005 (ip), vehicle: saline with Tween-80
[5] = dose: 120.0 mg/kg/injection, schedule: Q01DX005 (ip), vehicle: saline with Tween-80
[6] = dose: 240.0 mg/kg/injection, schedule: Q01DX005 (ip), vehicle: saline with Tween-80
[7] = dose: 50.0 mg/kg/injection, schedule: Q01DX005 (ip), vehicle: saline with Tween-80
[8] = dose: 50.0 mg/kg/injection, schedule: Q01DX005 (ip), vehicle: Klucel (hydroxypropylcellulose) (HPC)
[9] = dose: 100.0 mg/kg/injection, schedule: Q01DX005 (ip), vehicle: Klucel (hydroxypropylcellulose) (HPC)
[10] = dose: 50.0 mg/kg/injection, schedule: Q01DX009 (ip), vehicle: saline with Tween-80
[11] = dose: 100.0 mg/kg/injection, schedule: Q01DX009 (ip), vehicle: saline with Tween-80
[12] = dose: 200.0 mg/kg/injection, schedule: Q01DX009 (ip), vehicle: saline with Tween-80
[13] = dose: 100.0 mg/kg/injection, schedule: Q01DX005 (ip), vehicle: saline with Tween-80
[14] = dose: 200.0 mg/kg/injection, schedule: Q01DX005 (ip), vehicle: saline with Tween-80
[15] = dose: 6.25 mg/kg/injection, schedule: Q01DX009 (ip), vehicle: saline
[16] = dose: 12.5 mg/kg/injection, schedule: Q01DX009 (ip), vehicle: saline
[17] = dose: 25.0 mg/kg/injection, schedule: Q01DX009 (ip), vehicle: saline

Measured: T/C

Cc1csc([NH-])n1.Cc1csc([NH-])n1.[Cl][Pt+2][Cl]
inactive: dose: 100.0 mg/kg/injection, schedule: Q01DX001 (sc), vehicle: olive oil, sesame oil, peanut oil 104 % of control | dose: 200.0 mg/kg/injection, schedule: Q01DX001 (sc), vehicle: olive oil, sesame oil, peanut oil 107 % of control | dose: 400.0 mg/kg/injection, schedule: Q01DX001 (sc), vehicle: olive oil, sesame oil, peanut oil 104 % of control

Clc1ccc(NC2=NCCS2)cc1Cl
inactive: [1] 103 % of control | [2] 92 % of control | [3] 101 % of control

C#CCN1C(=O)N(CC#C)C(=O)C(CC#C)(C(CC=C)c2ccccc2)C1=O (centres undefined)
inactive: [4] 100 % of control | [5] 100 % of control | [6] 96 % of control

O=C(NCO)NS(=O)(=O)c1ccc(N2C(=O)c3ccccc3C2=O)cc1
inactive: [1] 103 % of control | [2] 107 % of control | [3] 112 % of control

C=C1CC[N+]2(CCCC)CCCC12 (centres undefined)
inactive: dose: 7.5 mg/kg/injection, schedule: Q01DX005 (ip), vehicle: saline 104 % of control | dose: 15.0 mg/kg/injection, schedule: Q01DX005 (ip), vehicle: saline 98 % of control | dose: 30.0 mg/kg/injection, schedule: Q01DX005 (ip), vehicle: saline 100 % of control

C=CCN(CC=C)C(=O)Nc1cc(OC)ccc1OC
inactive: [4] 97 % of control | [5] 97 % of control | [6] 103 % of control

Cc1cc[n+](C2=C(Nc3ccc(Cl)cc3C)C(=O)c3ccccc3C2=O)cc1
inactive: dose: 12.5 mg/kg/injection, schedule: Q01DX005 (ip), vehicle: saline with Tween-80 109 % of control | dose: 25.0 mg/kg/injection, schedule: Q01DX005 (ip), vehicle: saline with Tween-80 109 % of control | [7] 119 % of control | [4] 121 % of control

S=C=NP1(N=C=S)=NP(N=C=S)(N=C=S)=NP(N=C=S)(N=C=S)=N1 (centres undefined)
inactive: [8] 107 % of control | [9] 97 % of control

COc1ccc(-c2sc(-c3ccccc3)nc2O)cc1
inactive: [10] 89 % of control | [11] 89 % of control | [12] 92 % of control

CC1(c2cc(Cl)c(Cl)cc2Cl)NC(=O)NC1=O (centres undefined)
inactive: dose: 100.0 mg/kg/injection, schedule: Q01DX001 (ip), vehicle: saline with Tween-80 103 % of control | dose: 200.0 mg/kg/injection, schedule: Q01DX001 (ip), vehicle: saline with Tween-80 112 % of control

COc1cccc2c1C(=O)c1c(O)c(CCl)cc(OC)c1C2=O
inactive: dose: 7.5 mg/kg/injection, schedule: Q01DX005 (ip), vehicle: saline with Tween-80 108 % of control | dose: 15.0 mg/kg/injection, schedule: Q01DX005 (ip), vehicle: saline with Tween-80 117 % of control | dose: 30.0 mg/kg/injection, schedule: Q01DX005 (ip), vehicle: saline with Tween-80 114 % of control | [4] 101 % of control

O=C1C2CC3OC3CC2C(=O)N1CCCCCCN1C(=O)C2CC3OC3CC2C1=O (centres undefined)
inactive: [8] 91 % of control | [9] 90 % of control | dose: 200.0 mg/kg/injection, schedule: Q01DX005 (ip), vehicle: Klucel (hydroxypropylcellulose) (HPC) 89 % of control

CCCCn1c2nc(=O)n(C)c(=O)c-2cc2ccccc21
inactive: [10] 110 % of control and 90 % of control | dose: 66.0 mg/kg/injection, schedule: Q01DX009 (ip), vehicle: saline with Tween-80 103 % of control | [11] 102 % of control | dose: 150.0 mg/kg/injection, schedule: Q01DX009 (ip), vehicle: saline with Tween-80 103 % of control | [12] 120 % of control and 98 % of control

COC(=O)c1cc(O)c2c(c1C(=O)OC)C[C@H]1[C@@H]3CC=C4C[C@@H](O)CC[C@]4(C)[C@H]3CC[C@]21C
inactive: [7] 97 % of control | [13] 87 % of control | [14] 87 % of control

C=CCC(O)C(=O)OC1CC(C)CCC1C(C)(C)c1ccccc1 (centres undefined)
inactive: [4] 106 % of control | [5] 100 % of control | [6] 107 % of control

O=[N+]([O-])c1cccc(C2=NON(c3ccccn3)C3C=CC=CN23)c1 (centres undefined)
inactive: [4] 94 % of control | [5] 90 % of control | [6] 92 % of control

O=C(O)CNC(=O)CNc1nc(Cl)nc(NCC(=O)NCC(=O)O)n1
inactive: dose: 60.0 mg/kg/injection, schedule: Q01DX005 (ip), vehicle: Klucel (hydroxypropylcellulose) (HPC) 97 % of control | dose: 120.0 mg/kg/injection, schedule: Q01DX005 (ip), vehicle: Klucel (hydroxypropylcellulose) (HPC) 96 % of control | dose: 240.0 mg/kg/injection, schedule: Q01DX005 (ip), vehicle: Klucel (hydroxypropylcellulose) (HPC) 93 % of control

CN(C)C(=S)S(=O)(=O)CCCCCCS(=O)(=O)C(=S)N(C)C
inactive: dose: 50.0 mg/kg/injection, schedule: Q04DX002 (ip), vehicle: Klucel (hydroxypropylcellulose) (HPC) 102 % of control and 103 % of control | dose: 100.0 mg/kg/injection, schedule: Q04DX002 (ip), vehicle: Klucel (hydroxypropylcellulose) (HPC) 100 % of control and 110 % of control and 114 % of control | dose: 200.0 mg/kg/injection, schedule: Q04DX002 (ip), vehicle: Klucel (hydroxypropylcellulose) (HPC) 107 % of control and 111 % of control and 123 % of control | dose: 300.0 mg/kg/injection, schedule: Q04DX002 (ip), vehicle: Klucel (hydroxypropylcellulose) (HPC) 107 % of control and 109 % of control

CC(C)(O)C(=O)N/N=C/c1ccc(Cl)cc1
inactive: [4] 101 % of control | [5] 99 % of control | [6] 100 % of control

Clc1ccc(N=NN2CCc3ccccc3C2)cc1
inactive: [1] 99 % of control | [2] 99 % of control | [3] 93 % of control

O=S(=O)(Nc1nccs1)c1ccc(Nc2c3ccccc3nc3ncccc23)cc1
inactive: [4] 93 % of control | [5] 89 % of control

O=C(Nc1ccc(Cl)c(Cl)c1)Oc1ccccc1Cl
inactive: [4] 106 % of control | [5] 107 % of control | [6] 105 % of control

COc1ccc(C(=O)CCS(=O)(=O)CCC(=O)c2ccc(OC)cc2)cc1
inactive: dose: 100.0 mg/kg/injection, schedule: Q04DX003 (ip), vehicle: saline 93 % of control | dose: 200.0 mg/kg/injection, schedule: Q04DX003 (ip), vehicle: saline 91 % of control | dose: 400.0 mg/kg/injection, schedule: Q04DX003 (ip), vehicle: saline 91 % of control

COc1ccc2c3c([nH]c2c1N)C(C)NCC3 (centres undefined)
inactive: dose: 12.5 mg/kg/injection, schedule: Q01DX005 (ip), vehicle: Klucel (hydroxypropylcellulose) (HPC) 102 % of control | dose: 25.0 mg/kg/injection, schedule: Q01DX005 (ip), vehicle: Klucel (hydroxypropylcellulose) (HPC) 96 % of control | [8] 104 % of control | [9] 104 % of control

CNC(=O)OCc1nnn(-c2ccccc2)c1COC(=O)NC
inactive: dose: 12.5 mg/kg/injection, schedule: Q01DX005 (ip), vehicle: distilled water + Tween-80 98 % of control | dose: 25.0 mg/kg/injection, schedule: Q01DX005 (ip), vehicle: distilled water + Tween-80 98 % of control | dose: 50.0 mg/kg/injection, schedule: Q01DX005 (ip), vehicle: distilled water + Tween-80 96 % of control | dose: 100.0 mg/kg/injection, schedule: Q01DX005 (ip), vehicle: distilled water + Tween-80 91 % of control | dose: 200.0 mg/kg/injection, schedule: Q01DX005 (ip), vehicle: distilled water + Tween-80 88 % of control

N#CC(c1ccc(Cl)cc1)C(c1ccccc1)c1ccccc1 (centres undefined)
inactive: [10] 112 % of control | [11] 107 % of control | [12] 112 % of control

CCOC(=O)/[C](=N\N=P(N(C)C)(N(C)C)N(C)C)[Hg]/[C](=N/N=P(N(C)C)(N(C)C)N(C)C)C(=O)OCC
inactive: [15] 101 % of control and 94 % of control | [16] 99 % of control and 94 % of control | [17] 103 % of control and 108 % of control | dose: 50.0 mg/kg/injection, schedule: Q01DX009 (ip), vehicle: saline 106 % of control and 110 % of control

CC1(/C=N/NC(N)=O)NC(=O)NC1=O (centres undefined)
inactive: [7] 96 % of control | [13] 103 % of control | [14] 96 % of control

O=C(Nc1ccc(F)cc1)N1CCOCC1
inactive: [4] 98 % of control | [5] 93 % of control | [6] 93 % of control

COC(=O)c1[nH]c(=O)c2cccnc2c1O
inactive: [15] 104 % of control | [16] 100 % of control | [17] 92 % of control | [10] 103 % of control | [11] 98 % of control

CC1=CC(=O)C(O)C2(C)C(CCC3(C)OCCO3)C=C(O[Si](C)(C)C(C)(C)C)CC12 (centres undefined)
inactive: [4] 96 % of control | [5] 96 % of control | [6] 100 % of control

CC1=CC2C3C(=O)NC(=O)C3C1(C)C1C3C(=O)NC(=O)C3C21 (centres undefined)
inactive: [4] 100 % of control | [5] 100 % of control | [6] 101 % of control
